Key:
vitamin D-deficient rats [1] = experiment: Bone calcium mobilization response (serum calcium, OCPC method) in vitamin D-deficient rats; format: in vivo; conditions: intrajugular, 24 hours after administration, Mean ± SD (N = 4 ~ 6)
Method: Blood was collected after 24 hours, and the concentration of calcium in serum was determined by the OCPC (orthocresolphthalein complexon) method.

vitamin D-deficient rats [2] = experiment: Intestinal calcium transport response (method of Martin and DeLuca) in vitamin D-deficient rats; format: in vivo; conditions: intrajugular, 24 hours after administration, Mean ± SD (N = 4 ~ 6)
[3] = tested on: human premyeloblast leukemia cells (HL-60); experiment: Proliferation-suppression rate of HL-60 cells (Coulter counter, 4 days cultivation); format: cell-based; conditions: 96 h, HL-60, 4 days; for inhibition at 0.1 ng/mL: Concn. 0.1 ng/mL; for inhibition at 1 ng/mL: Concn. 1 ng/mL; for inhibition at 10 ng/mL: Concn. 10 ng/mL
Method: An HL-60 cell fluid adjusted to a concentration of 5 x 10^4 cells/ml was incorporated with each of the agents to be tested and cultivated in a carbon dioxide incubator at 37°C for 4 days. After the cultivation, the number of cells was measured by means of a Coulter counter. The percentage of the number thus measured relative to the number of cells in an untreated group was calculated, from which the proliferation-suppression rate was obtained.

[4] = tested on: human premyeloblast leukemia cells (HL-60); experiment: NBT reduction (differentiation of HL-60 cells into macrophages); format: cell-based; conditions: HL-60, 4 days, control 0.5
Method: Thereafter, the cells were smeared onto a slide glass, subjected to Giemsa staining, and the coloration of the cells was examined under a microscope. The number of cells containing intracellular blue-black formazan deposits was measured for 200 cells, and the results were expressed in terms of the percentage of NBT reduction-positive cells.

[5] = dose 50 pmol/100 g body wt., control 4.8 ± 0.29
[6] = dose 650 pmol/100 g body wt., control 4.8 ± 0.31
[7] = dose 50 pmol/100 g body wt., control 2.6 ± 0.27
[8] = dose 650 pmol/100 g body wt., control 2.5 ± 0.30

SMILES: C=C1/C(=C\C=C2/CCC[C@]3(C)[C@@H]([C@H](C)CCCC(C)(C)O)CC[C@@H]23)C[C@@H](O)C[C@@H]1O [1α,25-(OH)2D3, 1α,25-Dihydroxyvitamin D3, reference compound]
- Serum calcium (vitamin D-deficient rats [1]; [5]): 5.5 ± 0.30 mg/100 ml
- Serum calcium (vitamin D-deficient rats [1]; [6]): 8.5 ± 0.59 mg/100 ml
- Intestinal calcium transport (Ca [S/M]) (vitamin D-deficient rats [2]; [7]): 3.4 ± 0.72 Ca [S/M]
- Intestinal calcium transport (Ca [S/M]) (vitamin D-deficient rats [2]; [8]): 3.6 ± 0.52 Ca [S/M]
- inhibition at 0.1 ng/mL [3]: 6.2%
- inhibition at 1 ng/mL [3]: 36.1%
- inhibition at 10 ng/mL [3]: 72.4%
- NBT reduction rate ([4]; Concn. 0.1 µg/ml): 1.0%
- NBT reduction rate ([4]; Concn. 1 µg/ml): 16.5%
- NBT reduction rate ([4]; Concn. 10 µg/ml): 56.5%

SMILES: C=C1/C(=C\C=C2/CCC[C@]3(C)[C@@H]([C@H](C)CC[C@H](O)C(O)(C(F)(F)F)C(F)(F)F)CC[C@@H]23)C[C@@H](O)C[C@@H]1O [Compound 6a, 24(S)-26,26,26,27,27,27-hexa-fluoro-la,24,25-trihydroxyvitamin D3]
- inhibition at 0.1 ng/mL [3]: 30.7%
- inhibition at 1 ng/mL [3]: 74.9%
- inhibition at 10 ng/mL [3]: 83.7%
- NBT reduction rate ([4]; Concn. 0.1 µg/ml): 8.0%
- NBT reduction rate ([4]; Concn. 1 µg/ml): 55.0%
- NBT reduction rate ([4]; Concn. 10 µg/ml): 86.0%

SMILES: C=C1/C(=C\C=C2/CCC[C@]3(C)[C@@H]([C@H](C)CC[C@@H](O)C(O)(C(F)(F)F)C(F)(F)F)CC[C@@H]23)C[C@@H](O)C[C@@H]1O [Compound 6b, 24(R)-26,26,26,27,27,27-hexafluoro-1α,24,25-trihydroxyvitamin-D3]
- Serum calcium (vitamin D-deficient rats [1]; [5]): 6.3 ± 0.55 mg/100 ml
- Intestinal calcium transport (Ca [S/M]) (vitamin D-deficient rats [2]; [7]): 8.9 ± 2.81 Ca [S/M]
- inhibition at 0.1 ng/mL [3]: 50.2%
- inhibition at 1 ng/mL [3]: 84.7%
- inhibition at 10 ng/mL [3]: 90.4%
- NBT reduction rate ([4]; Concn. 0.1 µg/ml): 32.0%
- NBT reduction rate ([4]; Concn. 1 µg/ml): 79.5%
- NBT reduction rate ([4]; Concn. 10 µg/ml): 83.5%

SMILES: C=C1/C(=C\C=C2/CCC[C@]3(C)[C@@H]([C@H](C)CCC(=O)C(O)(C(F)(F)F)C(F)(F)F)CC[C@@H]23)C[C@@H](O)C[C@@H]1O [Compound 10, la,25-dihydroxy-26,26,26,27,27,27-hexafluoro-24-oxovitamin D3]
- Serum calcium (vitamin D-deficient rats [1]; [5]): 6.5 ± 0.40 mg/100 ml
- Intestinal calcium transport (Ca [S/M]) (vitamin D-deficient rats [2]; [7]): 6.5 ± 1.92 Ca [S/M]
- inhibition at 0.1 ng/mL [3]: 45.9%
- inhibition at 1 ng/mL [3]: 78.6%
- inhibition at 10 ng/mL [3]: 89.9%
- NBT reduction rate ([4]; Concn. 0.1 µg/ml): 12.5%
- NBT reduction rate ([4]; Concn. 1 µg/ml): 46.0%
- NBT reduction rate ([4]; Concn. 10 µg/ml): 82.5%

SMILES: C=C1/C(=C\C=C2/CCC[C@]3(C)[C@@H]([C@H](C)C[C@@H](O)CC(O)(C(F)(F)F)C(F)(F)F)CC[C@@H]23)C[C@@H](O)C[C@@H]1O [Compound 28a, 23(R)-26,26,26,27,27,27-hexa-fluoro-1α,23,25-trihydroxyvitamin D3]
- Serum calcium (vitamin D-deficient rats [1]; [6]): 7.2 ± 0.67 mg/100 ml
- Intestinal calcium transport (Ca [S/M]) (vitamin D-deficient rats [2]; [8]): 6.3 ± 1.88 Ca [S/M]
- inhibition at 0.1 ng/mL [3]: 19.8%
- inhibition at 1 ng/mL [3]: 76.4%
- inhibition at 10 ng/mL [3]: 92.2%
- NBT reduction rate ([4]; Concn. 0.1 µg/ml): 6.5%
- NBT reduction rate ([4]; Concn. 1 µg/ml): 60.5%
- NBT reduction rate ([4]; Concn. 10 µg/ml): 80.0%

SMILES: C=C1/C(=C\C=C2/CCC[C@]3(C)[C@@H]([C@H](C)C[C@H](O)CC(O)(C(F)(F)F)C(F)(F)F)CC[C@@H]23)C[C@@H](O)C[C@@H]1O [Compound 28b, 23(S)-26,26,26,27,27,27-hexa-fluoro-1α,23,25-trihydroxyvitamin D3]
- Serum calcium (vitamin D-deficient rats [1]; [6]): 5.6 ± 0.60 mg/100 ml
- Intestinal calcium transport (Ca [S/M]) (vitamin D-deficient rats [2]; [8]): 5.7 ± 1.92 Ca [S/M]
- inhibition at 0.1 ng/mL [3]: 22.8%
- inhibition at 1 ng/mL [3]: 67.3%
- inhibition at 10 ng/mL [3]: 86.9%
- NBT reduction rate ([4]; Concn. 0.1 µg/ml): 2.0%
- NBT reduction rate ([4]; Concn. 1 µg/ml): 60.0%
- NBT reduction rate ([4]; Concn. 10 µg/ml): 81.0%

Source: patent publication EP0250755A2, “Fluorine derivatives of vitamin D3 and process for producing the same” (SUMITOMO PHARMACEUTICALS COMPANY, LIMITED, priority 1986, dated 1988)
